Reference: patent publication US20090131513A1, “ANTI-INFLAMMATORY MODALITIES” (Novogen Research Pty Ltd., priority 2005, published 2009)

Key:
[1] = system: AA-induced ear inflammation; assay: Murine ear inflammation induced by arachidonic acid; format: in vivo, mice (BALB/c); conditions: for Increase in ear thickness (mean ± SD, ×0.01 mm): 25 mg/kg i/p, 1 hr post-AA application
Excerpt: Compounds were examined for their ability to inhibit ear swelling in mice induced by the topical application of arachidonic acid (AA). The inflammatory response due AA, the immediate precursor of the eicosanoids, is due to formation of AA metabolites via both the cyclooxygenase (COX) and lipoxygenase (LOX) pathways (Young et al. 1984). AA induces an increase in both PGE2 and LTC4 synthesis which precedes the increase in ear thickness (Opas et al. 1985; Chang et al. 1986).
Female BALB/c mice (ARC, WA, Australia), weighing 15-21 g were injected with Compound 2 delivered in polyethylene glycol (PEG) 400:phosphate buffered saline (PBS) 1:1 intraperitoneally (i/p) at a dose of 25 mg/kg either 30 min prior to or immediately before the application of AA to the ears. Mice were anaesthetized using isoflurane and baseline thickness of both ears was measured using a spring micrometer. Each mouse received a total of 20 μL of AA in ethanol (50 mg/ml) applied to the inner and outer surfaces of each pinna (i.e. 0.5 mg AA per ear). Mice were anaesthetized again to remeasure the ears at 1 hr post-AA application.
The difference in ear swelling pre- and post-application of AA for each ear was calculated, and the average for the two ears of each mouse calculated. The difference in mean swelling of each test group compared to the group given vehicle alone was calculated using a two-tailed unpaired t test (Prism 4, GraphPad Software).

[2] = system: NO synthesis in mouse macrophage cell line RAW 264.7; assay: Inhibition of nitric oxide synthesis (Griess reaction); format: cell-based; conditions: 10 μM
Experimental: Exposure of various cells (e.g. macrophages and smooth muscle cells) to bacterial LPS and proinflammatory cytokines induces iNOS which generates NO. NO production can be indirectly quantified by measurement of nitrite (NO2—), a stable breakdown product of NO. The mouse macrophage cell line RAW 264.7 was cultured in DMEM supplemented with FCS, 2 mM glutamine and 50 U/ml penicillin/streptomycin. Cells were treated with either test compound at 10 μM (in 0.125% DMSO) or vehicle alone, together with 10 ng/ml LPS. After incubation for 24 hrs, culture media was collected and analysed immediately for NO concentration using the Griess reaction (Eigler et al. 1995).

TX synthase (TXS) = molecular target: T1, TX synthase (TXS) (Homo sapiens, UniProt P24557); assay: TXB2 synthesis following addition of exogenous PGH2 to U937 cells; format: cell-based; conditions: 1, 10, 100 μM, undifferentiated U937 cells, PGH2 5 μM
T1 construct: endogenous in cells; host or cells: undifferentiated U937 cells
T1 sequence (P24557 1-533): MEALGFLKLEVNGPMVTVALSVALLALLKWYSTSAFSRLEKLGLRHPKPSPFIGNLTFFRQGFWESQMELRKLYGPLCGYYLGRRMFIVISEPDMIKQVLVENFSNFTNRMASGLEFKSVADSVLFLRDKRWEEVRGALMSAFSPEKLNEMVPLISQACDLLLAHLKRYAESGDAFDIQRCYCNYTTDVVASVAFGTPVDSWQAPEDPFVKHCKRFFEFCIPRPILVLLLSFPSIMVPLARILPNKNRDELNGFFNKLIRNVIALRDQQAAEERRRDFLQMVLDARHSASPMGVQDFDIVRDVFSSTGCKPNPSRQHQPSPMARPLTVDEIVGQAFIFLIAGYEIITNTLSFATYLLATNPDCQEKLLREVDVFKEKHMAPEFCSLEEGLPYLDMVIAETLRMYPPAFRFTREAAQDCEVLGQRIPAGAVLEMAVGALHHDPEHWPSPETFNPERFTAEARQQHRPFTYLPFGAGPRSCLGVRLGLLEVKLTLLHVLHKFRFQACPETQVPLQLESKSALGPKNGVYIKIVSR
Experimental: To examine effects of test compounds directly on TX synthase (TXS), a different assay system was used. Whereas arachidonic acid (AA) is the substrate for COX, PGH2 is the substrate for TX synthase. To examine directly the effect of these compounds on TXS, exogenous ? elow:
Test compounds at 0 μM, 1 μM, 10 μM and 100 μM (in DMSO) were incubated with undifferentiated U937 cells (6×10^6/ml) for 30 min at 37° C., after which PGH2 (5 μM) was added. After incubation for 10 min, the reaction was terminated by centrifugation and the supernatants were collected and TXB2 production was measured in triplicate by RIA. ANOVA followed by Newman-Keuls multiple comparisons test was used to examine differences between doses and the control values. A statistical significance level of 0.05 was used and differences from control values are indicated by an asterisk (*).

[3] = system: UV irradiation-induced skin oedema; assay: Murine model of UV irradiation-induced skin oedema; format: in vivo, mice (Skh:hr-1 albino); conditions: for Increase in skin thickness (mean ± SD, ×0.01 mm): topical 0.2 ml of 20 μM at 30 min, 2 h, 4 h; for skin oedema, in words: 48 hrs, topical
Excerpt: Groups of 4-5 female Skh:hr-1 albino mice were irradiated with 1×3 MEdD (minimal edematous dose) of solar simulated UV radiation (SSUV). Solar-simulated ultraviolet radiation (SSUV) was provided by a planar bank of 6 UVA tube (Hitachi 40 W F40 T 10/BL, black light) and one UVB tube (Philips TL 40 W/12 RS) with radiation filtered through a sheet of 0.125 mm cellulose acetate (Eastman Chemical Products, Kingport, Term, USA) to give 2.96×10-4 W/cm2 UVA and 1.59×10-5 W/cm2 UVB. During irradiation, the cages were rotated below the lights to reduce the variation in radiation intensity in different positions.
Either test compound (0.2 ml of a 20 μM solution) or vehicle (propylene glycol/ethanol/water 1:2:1) was applied to the irradiated dorsal skin at 30 min, 2 h and 4 h post-irradiation. Dorsal skin fold measurements were made with a spring micrometer prior to and at 24 hr and 48 h post-UV exposure. The difference in skin thickness pre- and post-exposure to UVR was calculated for each mouse, and the differences examined between test compound and vehicle control were analysed using an unpaired two-tailed t test.

SMILES	Increase in ear thickness (mean ± SD, ×0.01 mm) [1]	NO synthesis, direction of effect in words [2]	thromboxane synthase inhibition (TXB2 synthesis after exogenous PGH2), selectivity in words (TX synthase (TXS))	Increase in skin thickness (mean ± SD, ×0.01 mm) ([3]; 24 hrs post-irradiation)	Increase in skin thickness (mean ± SD, ×0.01 mm) ([3]; 48 hrs post-irradiation)	skin oedema, in words [3]	AA-induced ear inflammation / ear thickness compared with vehicle, in words ([1]; mouse, in vivo)
O=C1c2ccc(O)c(Br)c2OCC1c1ccc(O)cc1 (stereo not drawn) [Compound 1, 3-(4-hydroxyphenyl)-7-hydroxy-8-bromo-chroman-4-one]	9.5 ± 2.3 ×0.01 mm	inhibited NO synthesis	selective thromboxane synthase inhibitors	54 ± 20 ×0.01 mm	91 ± 7.6 ×0.01 mm	significantly inhibited	–
Oc1ccc(C2COc3c(ccc(O)c3O)C2O)cc1 (stereo not drawn) [Compound 2]	6.5 ± 2.9 ×0.01 mm	induced it	selective thromboxane synthase inhibitors	68 ± 24 ×0.01 mm	105 ± 22 ×0.01 mm	significantly inhibited	significant reduction in ear thickness
O=C1c2cc(Cl)c(O)cc2OCC1c1ccc(O)cc1 (stereo not drawn) [Compound 4]	9.2 ± 3.6 ×0.01 mm	induced it	selective thromboxane synthase inhibitors	63 ± 22 ×0.01 mm	145 ± 11 ×0.01 mm	–	–
